We go through one molecule from patent US20230219957A1, “SMALL MOLECULE CB002-ANALOGES RESTORE THE P53 PATHWAY AND TARGET S-PHASE CHECKPOINT” (Brown University, priority 2020, published 2023).

In data set [1] the test system is human SW480 colorectal cancer cells. Description: Tumor xenograft efficacy in NSG mice. It counts as in vivo. Particulars: 50 mg/kg oral gavage three times per week, 5-weeks of treatment. The protocol:
(§1) Drug efficacy using in vivo tumor xenografts. In vivo drug efficacy studies were performed on ten NSG female randomized mice per cohort. The mice had tested negative for any pathogen. Tumor inoculation was induced by subcutaneous injection in the left and right dorsal flank, each with a 150 μL suspension of 1-5×10^6 human colon cancer cells in phosphate-buffered saline with Matrigel (1:1). After tumor size reached 100 mm^3, mice were treated 3×/week with dimethyl sulfoxide vehicle or CB002-analog #4 via oral gavage (22-gauge needle) in a solution of 10% dimethyl sulfoxide, 20% Kolliphor® EL (Sigma cat. no. C5135), and 70% phosphate-buffered saline. Mouse weight and tumor measurements were recorded one-two times per week. Tumor volume was calculated as V=0.5*L*W^2, where L is length and W is the width of the tumor. At the end of the assay, mice were euthanized by CO2. All in vivo procedures were performed according to an approved Institutional Animal Care and Use Committee (IACUC) protocol.

For another data set, the system named is SW480 colon cancer cells. Description: Label-free quantitative proteomic analysis. It is filed as cell-based, human. Particulars: twenty-four hours. Here is the method:
Proteomic analysis. SW480 cells were seeded at a density of 1×10^6 in 10 cm dishes and treated with dimethyl sulfoxide vehicle control or CB002-analog #4 for twenty-four hours. Floating cells were collected. Adherent cells were trypsinized. Cells were spun down and washed with phosphate-buffered saline. The pelleted cells were frozen and submitted for LC-MS/MS identification and comparative analysis at the Center for Cancer Research Development, Proteomics Core Facility at the Rhode Island Hospital. Samples (cell pellets) were lysed with a lysis buffer (8M urea, 1 mM sodium orthovanadate, 20 mM HEPES, 2.5 mM sodium pyrophosphate, 1 mM β-glycerophosphate, pH 8.0, twenty minutes, 4° C.) followed by sonication at 40% amplification by using a microtip sonicator (QSonica, LLC, Model no. Q55) and cleared by centrifugation (14,000×g, fifteen minutes, 15° C.). Protein concentration was measured (Pierce BCA Protein Assay, Thermo Fisher Scientific, Waltham, Mass., USA). A total of 100 μg of protein per sample was subjected to trypsin digestion. Tryptic peptides were desalted using C18 Sep-Pak plus cartridges (Waters, Milford, Mass., USA) and were lyophilized for forty-eight hours to dryness. […]
Sample preparation for LC-MS/MS analysis. […] Protein concentration was measured (Pierce BCA Protein Assay, Thermo Fisher Scientific) and 100 μg of protein per sample was subjected for trypsin digestion. […]

For a further data set, the system named is SW480 shNoxa cells. The experiment in a line: Tumor xenograft efficacy in NSG mice, Noxa knockdown. It counts as in vivo. Particulars: compared to vehicle control. Here is the method: Knockdown expression of NOXA by lentivirus infection. A NOXA shRNA plasmid construct was amplified according to the manufacturers recommendation (TRC Lentiviral Human PMAIP1 shRNA, Dharmacon). Plasmid DNA was isolated using the PureLink® HiPure Plasmid Filter Maxiprep Kit (Invitrogen) according to the manufacturers instructions. Lentivirus production was performed by transfecting HEK293T cells at a density of 8×10^6 cells per 10-cm dish with 1.6 μg pMD2.G envelope plasmid, 3.2 μg psPAX2 packaging vector, 3.2 μg plasmid DNA, and 24 μL of Lipofectamine® Transfection reagent 2000 (Life Technologies) in a total volume of the reaction of 1 mL of antibiotic-free DMEM media for 6-10 hours. The media was then replaced with antibiotic-free DMEM. Lentiviral particles were collected between forty-eight to seventy-two hours. SW480 cells ([…] cells per well in a 12-well plate) were infected 1:1 (virus-containing media: antibiotic-free DMEM media, total volume 1 mL) for twenty-four hours. Then, the media was replaced with DMEM complete media for an additional twenty-four hours. […]
Drug efficacy using in vivo tumor xenografts. […] Mouse weight and tumor measurements were recorded one-two times per week. Tumor volume was calculated as V=0.5*L*W^2, where L is length and W is the width of the tumor. […]

On the set-up of data set [2]: species or system mice. The settings on record: in vivo, po, 50 mg/kg. Here is the method:
as §1

Regarding `Cn1c(=O)c2[nH]c(Nc3cccc(C(F)(F)F)c3)nc2n(C)c1=O` [CB002-analog #4], the tumor volume result in data set [1] is recorded as “lower tumor volume than vehicle control”; in the data set with SW480 shNoxa cells, “did not differ in tumor volume”. For the same molecule, in the data set on SW480 colon cancer cells, the “CDK4, CKS1B, ERCC6L, MAPK3, and MAX protein abundance” value is given as “decreased”. Also, the “tolerability by mouse body weights” value in data set [2] is “well-tolerated”.
